Our source for the IC50 values is ChEMBL document CHEMBL4138216, “Design, synthesis and structure-activity relationship of a focused library of β-phenylalanine derivatives as novel eEF2K inhibitors with apoptosis-inducing mechanisms in breast cancer” (Eur J Med Chem, 2018).

Assay [1] deals with T1, Eukaryotic elongation factor 2 kinase (Homo sapiens, UniProt O00418).
T1 sequence (O00418 whole entry): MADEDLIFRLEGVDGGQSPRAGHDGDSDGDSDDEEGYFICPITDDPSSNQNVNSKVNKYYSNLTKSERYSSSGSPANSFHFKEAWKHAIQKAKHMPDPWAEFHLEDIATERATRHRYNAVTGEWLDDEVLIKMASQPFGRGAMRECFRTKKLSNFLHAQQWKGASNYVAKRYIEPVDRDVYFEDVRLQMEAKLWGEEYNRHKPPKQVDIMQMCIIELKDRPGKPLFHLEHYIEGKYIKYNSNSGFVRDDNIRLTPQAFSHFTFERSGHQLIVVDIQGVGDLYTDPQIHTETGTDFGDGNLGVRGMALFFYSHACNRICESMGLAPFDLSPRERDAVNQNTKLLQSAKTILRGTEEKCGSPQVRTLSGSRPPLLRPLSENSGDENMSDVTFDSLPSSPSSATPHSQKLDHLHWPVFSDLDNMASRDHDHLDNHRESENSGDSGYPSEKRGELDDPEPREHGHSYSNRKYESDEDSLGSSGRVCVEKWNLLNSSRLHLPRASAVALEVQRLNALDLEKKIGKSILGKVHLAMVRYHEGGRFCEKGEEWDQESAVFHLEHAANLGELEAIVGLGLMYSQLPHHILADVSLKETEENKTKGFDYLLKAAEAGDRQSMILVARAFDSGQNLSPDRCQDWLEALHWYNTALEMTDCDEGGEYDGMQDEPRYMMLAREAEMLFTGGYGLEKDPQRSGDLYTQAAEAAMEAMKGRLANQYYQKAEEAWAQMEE
Description: Inhibition of eEF2K (unknown origin) using peptide MH-1 as substrate after 2 hrs by ADP-Glo luminescent assay.

Assay [2] concerns MDA-MB-436. Description: Antiproliferative activity against human MDA-MB-436 cells assessed as decrease in cell viability after 24 hrs by MTT assay. The format is functional, cell-based. Conditions: MDA-MB-436, 24 h.
Assay [3] has as its system MDA-MB-231. Description: cells. Conditions: Homo sapiens, MDA-MB-231, 24 h.
Description: Antiproliferative activity against human MDA-MB-231 cells assessed as decrease in cell viability after 24 hrs by MTT assay

As to `CC(C)(C)c1ccc(C(CC(=O)O)NS(=O)(=O)c2ccc(OC(F)(F)F)cc2)cc1` (configuration not stated), the IC50 was above 50 µM in assay [1], above 100 µM in assay [2] and above 100 µM in assay [3].

On to `O=C(O)CC(NS(=O)(=O)c1cc(F)cc(F)c1)c1ccccc1F` (configuration not stated), for which the concentration for half-maximal inhibition (IC50) in assay [1] came out at 19.4 µM; in assay [2] it was 89.3 µM; in assay [3], 73.5 µM.

With `O=C(O)CC(NC(=O)c1ccc(Cl)cc1Cl)c1ccc(Cl)cc1Cl` (configuration not stated), the IC50 in assay [1] is 19.9 µM; in assay [2], 57.3 µM; in assay [3], 49.2 µM.

Take `O=C(O)CC(NC(=O)c1ccc(C(F)(F)F)cc1)c1ccc(Cl)cc1Cl` (configuration not stated): the results for the half-maximal inhibitory concentration (IC50) in assay [1], in assay [2] and in assay [3] were 11.7 µM, 44.1 µM and 39.1 µM, respectively.

In the case of `COc1ccccc1C(=O)NC(CC(=O)O)c1ccc(Cl)cc1Cl` (configuration not stated), the IC50 was above 50 µM in assay [1], above 100 µM in assay [2] and above 100 µM in assay [3].

In the case of `CC(C)(C)c1ccc(C(CC(=O)O)NS(=O)(=O)c2ccccc2)cc1` (configuration not stated), the values for the IC50 in assay [1], in assay [2] and in assay [3] were above 50 µM, above 100 µM and above 100 µM, respectively.

Regarding `CNC(=O)c1cc(Oc2ccc(NC(=O)Nc3ccc(Cl)c(C(F)(F)F)c3)cc2)ccn1` [SORAFENIB], the IC50 in assay [2] stood at 4.2 µM; in assay [3], 2.8 µM.

Take `CC(C)(C)c1ccc(C(CC(=O)O)NC(=O)c2c(Cl)cccc2Cl)cc1` (configuration not stated): the results for the IC50 in assay [1], in assay [2] and in assay [3] were above 50 µM, above 100 µM and above 100 µM, respectively.

In the case of `O=C(O)CC(NS(=O)(=O)c1cc(F)cc(F)c1)c1ccccc1` (configuration not stated), the results for the IC50 in assay [1], in assay [2] and in assay [3] were 37.8 µM, 69.4 µM and 79.3 µM, respectively.

Regarding `O=C(O)CC(NC(=O)c1cccc(Br)c1)c1ccccc1` (configuration not stated), the values for the IC50 in assay [1], in assay [2] and in assay [3] were above 50 µM, above 100 µM and above 100 µM, respectively.

For `COc1ccc(C(=O)NC(CC(=O)O)c2ccc(Cl)cc2Cl)cc1` (configuration not stated), the IC50 in assay [1] is 44.4 µM; in assay [2] it was above 100 µM; in assay [3] it was above 100 µM.

Regarding `O=C(O)CC(NS(=O)(=O)c1cc(F)cc(F)c1)c1ccc(Cl)cc1Cl` (configuration not stated), the IC50 in assay [1] turned out to be 12.5 µM; in assay [2], 49.6 µM; in assay [3], 35.7 µM.

Regarding `CC(C)(C)c1ccc(S(=O)(=O)NC(CC(=O)O)c2ccccc2)cc1` (configuration not stated), the IC50 in assay [1] was above 50 µM; in assay [2], above 100 µM; in assay [3] it was above 100 µM.

Consider `O=C(O)CC(NS(=O)(=O)c1cccc([N+](=O)[O-])c1)c1ccc(Cl)cc1Cl` (configuration not stated), for which the figures for the 50% inhibitory concentration (IC50) in assay [1], in assay [2] and in assay [3] were 44.5 µM, above 100 µM and 77.8 µM, respectively.

On to `CC(C)(C)c1ccc(C(CC(=O)O)NS(=O)(=O)c2ccc(C(F)(F)F)cc2)cc1` (configuration not stated), for which the concentration for half-maximal inhibition (IC50) was 18.4 µM in assay [1], 60.1 µM in assay [2] and 53.7 µM in assay [3].

Turning to `COc1ccc(C(=O)NC(CC(=O)O)c2ccc(C(C)(C)C)cc2)cc1` (configuration not stated), the IC50 in assay [1] is 47.9 µM; in assay [2] it was above 100 µM; in assay [3], above 100 µM.

Regarding `O=C(O)CC(NC(=O)c1c(Cl)cccc1Cl)c1ccc(Cl)cc1Cl` (configuration not stated), the IC50 in assay [1] is above 50 µM; in assay [2], above 100 µM; in assay [3], above 100 µM.

`N#Cc1ccc(S(=O)(=O)NC(CC(=O)O)c2ccccc2)cc1` (configuration not stated): the results for the IC50 in assay [1], in assay [2] and in assay [3] were 18.7 µM, 59.3 µM and 48.7 µM, respectively.

Consider `O=C(O)CC(NS(=O)(=O)c1cccc([N+](=O)[O-])c1)c1ccccc1` (configuration not stated), for which the IC50 in assay [1] is above 50 µM; in assay [2], above 100 µM; in assay [3] it was above 100 µM.

Consider `O=C(O)CC(NC(=O)c1ccc(Cl)cc1Cl)c1ccccc1F` (configuration not stated), for which the figures for the IC50 in assay [1], in assay [2] and in assay [3] were 33.7 µM, above 100 µM and 89.3 µM, respectively.

Take `O=C(O)CC(NS(=O)(=O)c1ccccc1Br)c1ccc(Cl)cc1Cl` (configuration not stated): the IC50 was above 50 µM in assay [1], above 100 µM in assay [2] and above 100 µM in assay [3].

For `O=C(O)CC(NC(=O)c1cccc(Br)c1)c1ccc(Cl)cc1Cl` (configuration not stated), the figures for the concentration for half-maximal inhibition (IC50) in assay [1], in assay [2] and in assay [3] were 28.4 µM, above 100 µM and 82.5 µM, respectively.

Turning to `O=C(O)CC(NC(=O)c1ccc(F)cc1)c1ccccc1` (configuration not stated), the IC50 in assay [1] is 35.1 µM; in assay [2], above 100 µM; in assay [3], 84.3 µM.

For the molecule `O=C(O)CC(NC(=O)c1ccc(F)cc1)c1ccc(Cl)cc1Cl` (configuration not stated), the values for the IC50 in assay [1], in assay [2] and in assay [3] were 17.1 µM, 55.8 µM and 58.3 µM, respectively.

Turning to `O=C(O)CC(NC(=O)c1cccc(Br)c1)c1ccccc1F` (configuration not stated), the IC50 in assay [1] is above 50 µM; in assay [2], above 100 µM; in assay [3], above 100 µM.

Regarding `O=C(O)CC(NC(=O)c1ccc(C(F)(F)F)cc1)c1ccccc1F` (configuration not stated), the IC50 in assay [1] came to 44.5 µM; in assay [2], 66.8 µM; in assay [3], 59.2 µM.

In the case of `CC(C)(C)c1ccc(C(CC(=O)O)NC(=O)c2ccc(Cl)cc2Cl)cc1` (configuration not stated), the IC50 in assay [1] was 23.8 µM; in assay [2], above 100 µM; in assay [3], 67.8 µM.

For the molecule `O=C(O)CC(NS(=O)(=O)c1ccccc1Br)c1ccccc1` (configuration not stated), the figures for the IC50 in assay [1], in assay [2] and in assay [3] were above 50 µM, above 100 µM and above 100 µM, respectively.

`O=C(O)CC(NS(=O)(=O)c1ccccc1)c1ccccc1` (configuration not stated): the figures for the IC50 in assay [1], in assay [2] and in assay [3] were above 50 µM, above 100 µM and above 100 µM, respectively.

`CC(C)(C)c1ccc(C(CC(=O)O)NC(=O)c2ccc(F)cc2)cc1` (configuration not stated): the results for the IC50 in assay [1], in assay [2] and in assay [3] were 31.6 µM, above 100 µM and 87.6 µM, respectively.

For `COc1ccccc1C(=O)NC(CC(=O)O)c1ccc(C(C)(C)C)cc1` (configuration not stated), the IC50 is above 50 µM in assay [1], above 100 µM in assay [2] and above 100 µM in assay [3].

Consider `O=C(O)CC(NS(=O)(=O)c1ccc(OC(F)(F)F)cc1)c1ccccc1` (configuration not stated), for which the IC50 was above 50 µM in assay [1], above 100 µM in assay [2] and above 100 µM in assay [3].

Turning to `N#Cc1ccc(S(=O)(=O)NC(CC(=O)O)c2ccccc2F)cc1` (configuration not stated), the 50% inhibitory concentration (IC50) in assay [1] was 27.5 µM; in assay [2], 77.7 µM; in assay [3] it was 69.7 µM.

In the case of `O=C(O)CC(NS(=O)(=O)c1ccc(C(F)(F)F)cc1)c1ccccc1F` (configuration not stated), the IC50 in assay [1] came out at 11.6 µM; in assay [2] it was 55.6 µM; in assay [3], 47.1 µM.

As for `O=C(O)CC(NC(=O)c1ccc(Cl)cc1Cl)c1ccccc1` (configuration not stated), the 50% inhibitory concentration (IC50) in assay [1] was 29.3 µM; in assay [2], 78.2 µM; in assay [3] it was 67.2 µM.

As to `O=C(O)CC(NC(=O)c1ccc(F)cc1)c1ccccc1F` (configuration not stated), the IC50 in assay [1] was 36.7 µM; in assay [2] it was above 100 µM; in assay [3], 72.3 µM.

As to `O=C(O)CC(NS(=O)(=O)c1ccc(C(F)(F)F)cc1)c1ccccc1` (configuration not stated), the results for the IC50 in assay [1], in assay [2] and in assay [3] were 19.6 µM, 54.7 µM and 56.1 µM, respectively.

With `O=C(O)CC(NS(=O)(=O)c1ccc(C(F)(F)F)cc1)c1ccc(Cl)cc1Cl` (configuration not stated), the results for the IC50 in assay [1], in assay [2] and in assay [3] were 9.5 µM, 37.6 µM and 30.4 µM, respectively.

Take `COc1ccccc1C(=O)NC(CC(=O)O)c1ccccc1` (configuration not stated): the IC50 in assay [1] is above 50 µM; in assay [2], above 100 µM; in assay [3], above 100 µM.

As to `O=C(O)CC(NS(=O)(=O)c1ccccc1)c1ccccc1F` (configuration not stated), the IC50 in assay [1] is above 50 µM; in assay [2], above 100 µM; in assay [3] it was above 100 µM.

On to `CC(C)(C)c1ccc(C(CC(=O)O)NC(=O)c2ccc(C(F)(F)F)cc2)cc1` (configuration not stated), for which the concentration for half-maximal inhibition (IC50) in assay [1] was 22.6 µM; in assay [2], 82.3 µM; in assay [3] it was 78.8 µM.
